pEC50: −log10 of the molar value. Bounds are passed on as bounds.

The test system of this experiment is HEK293T cells carrying the ATF4 luciferase reporter. The experiment is described as follows: ATF4-Luc assay, in vitro model of Vanishing Cell White Matter Disease (VWMD). Format: cell-based. As to conditions: Homo sapiens, HEK-293T, 1 μg/mL tunicamycin, 7 hours, One Glo luminescence. In a few lines: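 Reporter cells were stably generated by retroviral transduction and puromycin selection, then seeded at 30,000 cells/well. Next day, cells received 1 μg/mL tunicamycin with 200 nM test compound for 7 h, and luciferase luminescence was read with a one-step reagent. Values reported as EC50.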
Take `CC(C)(C)c1cc(C(=O)NC23CCC(NC(=O)COc4ccc(Cl)c(F)c4)(CC2)C(O)C3)on1` (stereo not shown) [Compound 353, 3-tert-butyl-N-{4-[2-(4-chloro-3-fluorophenoxy)acetamido]-3-hydroxybicyclo[2.2.2]octan-1-yl}-1,2-oxazole-5-carboxamide]: the negative-log EC50 (pEC50) is 6.60 to 7.30. Under `Cc1c(Cl)c(C(=O)NC23CC(NC(=O)COc4ccc(Cl)c(F)c4)(C2)C3)nn1C` [Compound 780, 4-chloro-N-{3-[2-(4-chloro-3-fluorophenoxy)acetamido]bicyclo[1.1.1]pentan-1-yl}-1,5-dimethyl-1H-pyrazole-3-carboxamide] stands < 5.70; under `CC(C)c1cc(C(=O)NC23CC(NC(=O)COc4ccc(Cl)c(F)c4)(C2)C3)n(C)n1` [Compound 364, N-{3-[2-(4-chloro-3-fluorophenoxy)acetamido]bicyclo[1.1.1]pentan-1-yl}-1-methyl-3-(propan-2-yl)-1H-pyrazole-5-carboxamide], 6.60 to 7.30.

As to `COc1cccc(F)c1C(=O)NC12CC(NC(=O)COc3ccc(Cl)c(F)c3)(C1)C2` [Compound 528, N-{3-[2-(4-chloro-3-fluorophenoxy)acetamido]bicyclo[1.1.1]pentan-1-yl}-2-fluoro-6-methoxybenzamide], the pEC50 was < 5.70. With `COc1ccc(C(=O)NC23CC(NC(=O)COc4ccc(Cl)c(F)c4)(C2)C3)c(F)c1` [Compound 518, N-{3-[2-(4-chloro-3-fluorophenoxy)acetamido]bicyclo[1.1.1]pentan-1-yl}-2-fluoro-4-methoxybenzamide], the negative-log EC50 (pEC50) was 6.00 to 6.60.

Consider `O=C(COc1ccc(Cl)c(F)c1)NC12CCC(NC(=O)c3cc(Cc4ccc(Cl)cc4)no3)(CC1)CC2O` (stereo not shown) [Compound 410, N-{4-[2-(4-chloro-3-fluorophenoxy)acetamido]-3-hydroxybicyclo[2.2.2]octan-1-yl}-3-[(4-chlorophenyl)methyl]-1,2-oxazole-5-carboxamide], for which the pEC50 was 6.60 to 7.30. For `O=C(CCCc1cccc(Cl)c1)NC12CC(NC(=O)c3cnc(C(F)F)cn3)(C1)C2` [Compound 946, N-{3-[4-(3-chlorophenyl)butanamido]bicyclo[1.1.1]pentan-1-yl}-5-(difluoromethyl)pyrazine-2-carboxamide], the pEC50 is < 5.70. Under `Cc1ncc(C(=O)NC23CC(NC(=O)COc4ccc(Cl)c(F)c4)(C2)C3)nc1C` [Compound 196, N-{3-[2-(4-chloro-3-fluorophenoxy)acetamido]bicyclo[1.1.1]pentan-1-yl}-5,6-dimethylpyrazine-2-carboxamide] stands 6.00 to 6.60. Consider `O=C(COc1ccc(Cl)c(F)c1)NC12CC(NC(=O)c3cncc(N4CCOCC4)n3)(C1)C2` [Compound 894, N-{3-[2-(4-chloro-3-fluorophenoxy)acetamido]bicyclo[1.1.1]pentan-1-yl}-6-(morpholin-4-yl)pyrazine-2-carboxamide], for which the pEC50 is 6.00 to 6.60. For `O=C(COc1ccc(Cl)c(F)c1)NC12CC(NC(=O)c3cncc(CO)c3)(C1)C2` [Compound 453, N-{3-[2-(4-chloro-3-fluorophenoxy)acetamido]bicyclo[1.1.1]pentan-1-yl}-5-(hydroxymethyl)pyridine-3-carboxamide], the pEC50 was 5.70 to 6.00.

Turning to `COc1ccc(C(=O)NC23CC(NC(=O)COc4ccc(Cl)c(F)c4)(C2)C3)cc1` [Compound 533, N-{3-[2-(4-chloro-3-fluorophenoxy)acetamido]bicyclo[1.1.1]pentan-1-yl}-4-methoxybenzamide], the pEC50 was 6.60 to 7.30.

For the compound `Cc1ncc(C(=O)NC23CC(NC(=O)COc4ccc(Cl)c(F)c4)(C2)C3)o1` [Compound 257, N-{3-[2-(4-chloro-3-fluorophenoxy)acetamido]bicyclo[1.1.1]pentan-1-yl}-2-methyl-1,3-oxazole-5-carboxamide], the pEC50 is 6.60 to 7.30. Turning to `COc1ccsc1C(=O)NC12CC(NC(=O)COc3ccc(Cl)c(F)c3)(C1)C2` [Compound 548, N-{3-[2-(4-chloro-3-fluorophenoxy)acetamido]bicyclo[1.1.1]pentan-1-yl}-3-methoxythiophene-2-carboxamide], the pEC50 was < 5.70.

One may read the pEC50 as −log10 of the EC50, conventionally taken in molar units.
